BindingDB's records for doi:10.1016/j.bioorg.2013.11.005 (Sastra University, 2014)

Assays:
[1] = biological target: Angiogenin (Homo sapiens, UniProt P03950); assay: Inhibition Kinetics with Angiogenin; details: pH 6
Protocol: The assay was carried out in oligovinylsulfonic acid free 0.1 M Mes-NaOH buffer (pH 6.0) containing 0.1 M NaCl using substrate concentration from 20 to 122 nM. The concentration of compounds 2, 3, 4 and 5 ranged from 0 to 0.8, 0 to 1.2, 0 to 1.2 and 0 to 2.5 mM, respectively. The angiogenin concentration was 0.36 µM.

[2] = biological target: Ribonuclease pancreatic (Bos taurus) (UniProt P61823)
Chain of Ribonuclease pancreatic (Bos taurus) (P61823 whole entry, looked up): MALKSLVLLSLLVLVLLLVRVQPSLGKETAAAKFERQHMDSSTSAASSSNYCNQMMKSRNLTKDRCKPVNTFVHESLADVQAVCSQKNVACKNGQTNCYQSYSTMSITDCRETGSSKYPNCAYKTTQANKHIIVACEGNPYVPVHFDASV

Chain of Angiogenin (P03950 whole entry): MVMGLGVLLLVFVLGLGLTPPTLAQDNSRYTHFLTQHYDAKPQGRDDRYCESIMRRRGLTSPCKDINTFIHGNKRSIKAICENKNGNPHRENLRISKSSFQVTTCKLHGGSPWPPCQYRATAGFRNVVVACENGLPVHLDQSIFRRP

Row | SMILES | Ki [1] | Ki [2]
1 | Cc1cn([C@H]2C[C@@H](NC(=O)CC(=O)O)[C@@H](CO)O2)c(=O)[nH]c1=O [N-[2-Hydroxymethyl-5-(5-methyl-2,4-dioxo-3,4-dihydro-2H-pyrimidin-1-yl)-tetrahydro-furan-3-yl]-malonamic acid (Compound 6)] | 1110 µM | 380 µM
2 | Cc1cn([C@H]2C[C@@H](NC(=O)C(=O)O)[C@@H](CO)O2)c(=O)[nH]c1=O [N-[2-Hydroxymethyl-5-(5-methyl-2,4-dioxo-3,4-dihydro-2H-pyrimidin-1-yl)-tetrahydro-furan-3-yl]-oxalamic acid (Compound 5)] | 775 µM | 132 µM
3 | Cc1cn([C@H]2C[C@@H](NC(=O)C(N)CO)[C@@H](CO)O2)c(=O)[nH]c1=O (stereo partly drawn) [Ser-aT (Compound 2)] | 427 µM | 80 µM
4 | Cc1cn([C@H]2C[C@@H](NC(=O)C(N)Cc3ccc(O)cc3)[C@@H](CO)O2)c(=O)[nH]c1=O (stereo partly drawn) [Tyr-aT (Compound 3)] | 1250 µM | 451 µM
